Assay results from patent US4804664A, “Method and pharmaceutical preparation for treating chronic obstructive airway disease and cardiac disease, and intermediates for the preparation of therapeutically active xanthine derivatives” (priority 1978, dated 1989).
Entries after “also recorded” stand apart in the source; their conditions may differ. Read-outs that look alike come from different tables or passages of the source.

Columns and labels:
mice [1] = assay: in vivo; settings: theophylline relative to compound, Table 2
in vivo [2] = settings: mouse, in vivo, po, mice, p.o.
Guinea-Pig heart = assay: Isolated Guinea-Pig Hearts (Langendorff), chronotropic and inotropic potency; settings: relative to theophylline (= 1); for Guinea-Pig heart Potency ratios of theophylline, chronotrop: cardioacceleration; for Guinea-Pig heart Potency ratios of theophylline, inotrop: inotropic
Experimental: From the bled guinea-pigs, the hearts were immediately removed and perfused with oxygenated Krebs solution at 37° according to Langendorff. The heart was mounted in a thermostatically controlled organ bath (25 ml) containing Krebs solution. A saline-filled, open-end polyethylene catheter was inserted into the right ventricle through the pulmonary artery. The catheter was fixed to the pulmonary artery by a ligature just above the valvular plane. It was connected to a pressure transduser (P23 AC), making it possible to record changes in intraventricular pressure. From these, the contraction frequency was obtained. Drugs were given as single bolus injections into the perfusion solution.
Potency ratios for relaxing effects on isolated bronchial smooth muscle, for cardioacceleration and for i.v. acute toxicity are illustrated. The relation between therapeutic ratios for theophylline and each compound is also calculated (column to the right).

mice [3] = assay: in vivo; settings: for Ratio i.v. LD50 TA/(.): theophylline relative to compound, Table 2; for tonic convulsions: lethal doses
Experimental: (§1) Male NMRI mice, weighing 20-26 g, starved for 8 hr. were used. The compounds, dissolved in 0.5M NaOH and 0.85% NaCl-solution (pH 10.6-12.1) were administered as follows:
(§2) (a) intravenously, 0.1 ml/10 g at an injection rate of 0.3 ml per minute
(§3) At least seven dose levels, doses increasing in a geometric progression with a factor 1.2, were examined. Each dose was given to 5 animals. […] The position of extremities in dead animals indicated whether they had died in convulsions or not. The LD50 values±standard error were calculated using probit analysis.

in vivo [4] = settings: mouse, in vivo, mice; for LD50 at 336 h: iv, i.v.; for selectivity ratio at 336 h: read-out: Ratio LD50 p.o. / LD50 i.v.
Experimental: as §1, §2, §3

[5] = theophylline therapy, cited from earlier work
[6] = probit analysis, read-out: LD50 ± SE p.o.
[7] = probit analysis, read-out: LD50 ± SE i.v.

Compound | Ratio p.o. LD50 TA/(.) (mice [1]) | LD50 at 336 h (in vivo [2]; [6]) [mg/kg] | LD50 at 336 h (in vivo [2]; read-out: LD50 p.o.) [µmol/kg] | Guinea-Pig heart Potency ratios of theophylline, chronotrop (Guinea-Pig heart) | Guinea-Pig heart Potency ratios of theophylline, inotrop (Guinea-Pig heart) | Ratio i.v. LD50 TA/(.) (mice [3]) | tonic convulsions (mice [3]) | LD50 at 336 h (in vivo [4]; [7]) [mg/kg] | LD50 at 336 h (in vivo [4]; read-out: LD50 i.v.) [µmol/kg] | selectivity ratio at 336 h (in vivo [4]) | major therapeutic effects ([5]; COAD and cardiac disease) | toxic side-effects [5]
CCCn1c(=O)[nH]c(=O)c2[nH]cnc21 [D 4028, 3,7-dihydro-3-propyl-1H-purine-2,6-dione] | 0.87 | 501 ± 54 | 2550 | 2 | 2.5 | 1.24 | without convulsive effects | 157 ± 7.1 | 810 | 3.1 |  | 
CC(C)Cn1c(=O)[nH]c(=O)c2[nH]cnc21 [D 4030, 3,7-dihydro-3-(2-methylpropyl)-1H-purine-2,6-dione] | 1.53 | 304 ± 26 | 1450 | 5 | 2 | 1.94 | without convulsive effects | 109 ± 5.9 | 520 | 2.8 |  | 
CCCCn1c(=O)[nH]c(=O)c2[nH]cnc21 [D 4031, 3-butyl-3,7-dihydro-1H-purine-2,6-dione] | 1.14 | 408 ± 10.7 | 1950 | 5 | 2 | 1.35 | without convulsive effects | 158 ± 8.8 | 750 | 2.6 |  | 
Cn1c(=O)c2[nH]cnc2n(C)c1=O [Theophylline, reference compound] |  |  |  |  |  |  | in lethal doses produced tonic convulsions; also recorded: convulsions which theophylline does |  |  |  | relax bronchial smooth muscle and stimulate heart muscle | most common are nausea and gastric distress, most serious are convulsions, which may lead to death
